Measurements taken from ChEMBL document CHEMBL1201862, “PubChem BioAssay data set” (2004).
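Protocol summary: plate cells (96-well), add compound at 5 concentrations, incubate 48 h, interpolate endpoints linearly. GI50 = concentration required for 50% inhibition of growth.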 Active and inactive are the calls of the source. No stated cut-off is given here; in the data, active = GI50 up to about 1.1 µM and inactive = higher.

Tests used:
Assay in all cases: growth of human tumour cells (NCI), 48 h
[1] = system: NCI-H522
[2] = system: UO-31
[3] = system: SK-MEL-5
[4] = system: UACC-257
[5] = system: BT-549
[6] = system: IGROV-1
[7] = system: HCC 2998
[8] = system: TK-10
[9] = system: ACHN
[10] = system: RXF 393
[11] = system: SK-MEL-28
[12] = system: SNB-19
[13] = system: PC-3
[14] = system: OVCAR-8
[15] = system: M14
[16] = system: DU-145
[17] = system: A549
[18] = system: HCT-116
[19] = system: MDA-MB-435
[20] = system: HOP-92

Row | SMILES | GI50 [1] | GI50 [2] | GI50 [3] | GI50 [4] | GI50 [5] | GI50 [6] | GI50 [7] | GI50 [8] | GI50 [9] | GI50 [10] | GI50 [11] | GI50 [12] | GI50 [13] | GI50 [14] | GI50 [15] | GI50 [16] | GI50 [17] | GI50 [18] | GI50 [19] | GI50 [20]
1 | CCCNC(=O)Cn1c(-c2ccccc2)cc2ccccc21 | 23.7 µM (inactive) | > 100 µM (inactive) | 30.5 µM (inactive) | > 100 µM (inactive) | > 100 µM (inactive) | 43.9 µM (inactive) | > 100 µM (inactive) | 43.1 µM (inactive) | 71.8 µM (inactive) | 18.5 µM (inactive) | 92.3 µM (inactive) | > 100 µM (inactive) | 41.1 µM (inactive) | > 100 µM (inactive) | > 100 µM (inactive) | > 100 µM (inactive) | 67.1 µM (inactive) | 24.2 µM (inactive) | 77.3 µM (inactive) | –
2 | Cc1ccc2nc(-c3nccn3C)cc(C(=O)NC(C)CN(C)C)c2c1 (stereo not given) | – | 92.7 µM (inactive) | 97.9 µM (inactive) | > 100 µM (inactive) | > 100 µM (inactive) | > 100 µM (inactive) | > 10 µM (inactive) | > 100 µM (inactive) | 60 µM (inactive) | > 100 µM (inactive) | > 100 µM (inactive) | > 100 µM (inactive) | 25.3 µM (inactive) | > 100 µM (inactive) | > 100 µM (inactive) | > 100 µM (inactive) | 89.9 µM (inactive) | > 100 µM (inactive) | > 100 µM (inactive) | 46.3 µM (inactive)
3 | COC(=O)c1cc(C#N)[nH]c1-c1cccs1 | 33.9 µM (inactive) | 81.8 µM (inactive) | – | > 100 µM (inactive) | 31.8 µM (inactive) | – | > 100 µM (inactive) | – | 89.9 µM (inactive) | 22.6 µM (inactive) | > 100 µM (inactive) | > 100 µM (inactive) | 47.1 µM (inactive) | > 100 µM (inactive) | > 100 µM (inactive) | 86.9 µM (inactive) | > 100 µM (inactive) | > 100 µM (inactive) | > 100 µM (inactive) | 30.8 µM (inactive)
4 | COc1ccc(-c2cc(-c3ccccc3)nc3c2CC(=O)Nc2ccccc2-3)cc1OC | > 76.7 µM (inactive) | 5.69 µM (inactive) | 68.5 µM (inactive) | > 100 µM (inactive) | > 100 µM (inactive) | > 100 µM (inactive) | > 100 µM (inactive) | > 56.1 µM (inactive) | 4.67 µM (inactive) | 6.73 µM (inactive) | > 100 µM (inactive) | – | > 100 µM (inactive) | 0.125 µM (active) | > 100 µM (inactive) | > 100 µM (inactive) | – | – | > 100 µM (inactive) | 5.46 µM (inactive)
5 | O=CC12C3CCC1C2C(=O)C3 (stereo not given) | > 100 µM (inactive) | – | > 100 µM (inactive) | > 100 µM (inactive) | > 100 µM (inactive) | > 100 µM (inactive) | > 100 µM (inactive) | > 100 µM (inactive) | > 100 µM (inactive) | > 100 µM (inactive) | > 100 µM (inactive) | > 100 µM (inactive) | > 100 µM (inactive) | > 100 µM (inactive) | > 100 µM (inactive) | > 100 µM (inactive) | > 100 µM (inactive) | > 100 µM (inactive) | > 100 µM (inactive) | > 100 µM (inactive)
6 | COP(=O)(OC)C1=c2c(C)noc2=C2C=COC2C1=O (stereo not given) | > 100 µM (inactive) | > 100 µM (inactive) | > 100 µM (inactive) | > 100 µM (inactive) | > 100 µM (inactive) | > 100 µM (inactive) | > 100 µM (inactive) | > 100 µM (inactive) | > 100 µM (inactive) | > 100 µM (inactive) | – | > 100 µM (inactive) | > 100 µM (inactive) | > 100 µM (inactive) | > 100 µM (inactive) | > 100 µM (inactive) | > 100 µM (inactive) | > 100 µM (inactive) | > 100 µM (inactive) | 63.4 µM (inactive)
7 | C#CCN(C(=O)C(F)(F)F)C(/C=C\C(=O)OC)(C(=O)OCC)C(=O)OCC | > 100 µM (inactive) | > 100 µM (inactive) | > 100 µM (inactive) | – | > 100 µM (inactive) | > 100 µM (inactive) | > 100 µM (inactive) | > 100 µM (inactive) | > 100 µM (inactive) | > 100 µM (inactive) | > 100 µM (inactive) | > 100 µM (inactive) | > 100 µM (inactive) | > 100 µM (inactive) | > 100 µM (inactive) | > 100 µM (inactive) | > 100 µM (inactive) | – | > 100 µM (inactive) | –
8 | O=C1Nc2ccccc2C(=O)O/C(Cc2ccccc2)=N\c2ccccc21 | > 100 µM (inactive) | > 100 µM (inactive) | > 100 µM (inactive) | 54.6 µM (inactive) | > 100 µM (inactive) | > 100 µM (inactive) | 82.8 µM (inactive) | > 100 µM (inactive) | > 100 µM (inactive) | > 100 µM (inactive) | > 100 µM (inactive) | > 100 µM (inactive) | > 100 µM (inactive) | > 100 µM (inactive) | > 100 µM (inactive) | > 100 µM (inactive) | > 100 µM (inactive) | > 100 µM (inactive) | > 100 µM (inactive) | –
9 | O=C1CC(c2ccc(Cl)cc2)C2(C(=O)NC(=O)NC2=O)C(c2ccc(Cl)cc2)C1 (stereo not given) | 17.5 µM (inactive) | 25.6 µM (inactive) | 14.5 µM (inactive) | 30.8 µM (inactive) | 30.7 µM (inactive) | 18 µM (inactive) | 27.9 µM (inactive) | 54.8 µM (inactive) | 49 µM (inactive) | 15 µM (inactive) | 18.2 µM (inactive) | 32.3 µM (inactive) | 30.5 µM (inactive) | 27.5 µM (inactive) | 27.7 µM (inactive) | 21.7 µM (inactive) | – | 31.6 µM (inactive) | 17.3 µM (inactive) | 14.7 µM (inactive)
10 | CCSc1n/c(=C\c2ccc(N(C)C)cc2)c2nnnn12 | > 100 µM (inactive) | – | > 100 µM (inactive) | > 100 µM (inactive) | > 100 µM (inactive) | > 100 µM (inactive) | > 100 µM (inactive) | > 100 µM (inactive) | > 100 µM (inactive) | > 100 µM (inactive) | > 100 µM (inactive) | > 100 µM (inactive) | > 100 µM (inactive) | > 100 µM (inactive) | > 100 µM (inactive) | > 100 µM (inactive) | > 100 µM (inactive) | > 100 µM (inactive) | > 100 µM (inactive) | > 100 µM (inactive)
11 | COc1ccc(-c2[nH]c(-c3ccc(OC)cc3)c(-c3ccccn3)c2-c2ccccn2)cc1 | – | 33.7 µM (inactive) | 18.3 µM (inactive) | 40.2 µM (inactive) | 36.2 µM (inactive) | 71.8 µM (inactive) | 13.6 µM (inactive) | > 100 µM (inactive) | 74 µM (inactive) | 31.3 µM (inactive) | – | 68.7 µM (inactive) | 44 µM (inactive) | 50 µM (inactive) | 48.1 µM (inactive) | > 100 µM (inactive) | 40.8 µM (inactive) | > 100 µM (inactive) | 21.7 µM (inactive) | > 100 µM (inactive)
12 | CC1(C)CC[C@]2(C(=O)O)CC[C@]3(C)C(=CC[C@@H]4[C@@]5(C)CC[C@H](OC6OC(CO)C(O)C(O)C6O)C(C)(C)[C@@H]5CC[C@]43C)[C@@H]2C1 (stereo not given in full) | 1.45 µM (inactive) | 1.71 µM (inactive) | 1.93 µM (inactive) | 1.69 µM (inactive) | 1.31 µM (inactive) | 1.58 µM (inactive) | 1.59 µM (inactive) | – | 1.66 µM (inactive) | 1.98 µM (inactive) | 1.99 µM (inactive) | 1.52 µM (inactive) | 1.6 µM (inactive) | 1.75 µM (inactive) | 1.75 µM (inactive) | 1.98 µM (inactive) | 1.68 µM (inactive) | 1.69 µM (inactive) | 1.87 µM (inactive) | 1.68 µM (inactive)
13 | CCC1(CC)C(=O)N(C(=O)c2ccccc2)N(C(=O)c2ccc(Cl)cc2)C1=O | 25.4 µM (inactive) | > 75 µM (inactive) | > 75 µM (inactive) | > 75 µM (inactive) | > 75 µM (inactive) | > 75 µM (inactive) | > 75 µM (inactive) | > 75 µM (inactive) | > 75 µM (inactive) | > 75 µM (inactive) | > 75 µM (inactive) | > 75 µM (inactive) | > 75 µM (inactive) | > 75 µM (inactive) | > 75 µM (inactive) | > 75 µM (inactive) | > 75 µM (inactive) | 43.9 µM (inactive) | > 75 µM (inactive) | –
14 | CN(C)CCCNc1ccnc2cc([N+](=O)[O-])ccc12 | 3.6 µM (inactive) | 16.9 µM (inactive) | 11.9 µM (inactive) | 13.9 µM (inactive) | 19.1 µM (inactive) | 4.06 µM (inactive) | – | 30.7 µM (inactive) | 19 µM (inactive) | 11.2 µM (inactive) | 36.2 µM (inactive) | – | 14.1 µM (inactive) | 13.9 µM (inactive) | 12 µM (inactive) | 27.8 µM (inactive) | 22.5 µM (inactive) | 6.31 µM (inactive) | 14.8 µM (inactive) | 3.38 µM (inactive)
15 | CC(=O)OCC1OC(Nc2ccc3nc(C)n(-c4cccc(C)c4)c(=O)c3c2)C(OC(C)=O)C(OC(C)=O)C1OC(C)=O (stereo not given) | > 62.5 µM (inactive) | > 62.5 µM (inactive) | > 62.5 µM (inactive) | > 62.5 µM (inactive) | > 62.5 µM (inactive) | > 62.5 µM (inactive) | > 62.5 µM (inactive) | > 62.5 µM (inactive) | > 62.5 µM (inactive) | > 62.5 µM (inactive) | > 62.5 µM (inactive) | > 62.5 µM (inactive) | > 62.5 µM (inactive) | > 62.5 µM (inactive) | – | > 62.5 µM (inactive) | – | > 62.5 µM (inactive) | > 62.5 µM (inactive) | –
